# Patent US12350458B2, “Apparatus and method for skin treatment” (Brain Tunnelgenix Technologies Corp., priority 2015, dated 2025)
# Method: Referring to FIG. 1, an epidermis 1506 and a dermis 1508 are collectively referred to as a superficial skin layer 1520 herein. An area of a skin 1500 where cold is applied is referred to herein as a cold site. […] Skin blood flow rate in both the cold site and normothermic site was measured using a laser Doppler perfusion imaging system. Studies also compared plasma concentration of drug 1510 in subjects at the cold site and the normothermic site. […] In one exemplary experiment skin blood flow was measured 15 min after application of cold, and every 15 min thereafter for a total of 3 hours.
smiles,measurement,setting,value
O=C(O)c1ccccc1O [salicylic acid],"concentration of drug in superficial skin layer of cold site, higher compared to normothermic site",,about 80%
same,"plasma concentration at cold site, lower compared to normothermic site","human, in vivo",about 60%
same,"plasma concentration, cold site","human, in vivo",about 45 nmol/ml
